Data published in patent publication US9988359B2, “Herbicidally active benzoic acid amides” (BAYER CROPSCIENCE AKTIENGESELLSCHAFT, priority 2014, dated 2018).

tested on: PHBPU Pharbitis purpureum; experiment: Post-emergence herbicidal action against harmful plants; assay type: in vivo; details: dosage 20 g/ha, assessed visually after about 3 weeks, 100% = plants have died
Method: (§1) AMARE Amaranthus retroflexus PHBPU Pharbitis purpureum Seeds of monocotyledonous and dicotyledonous weed and crop plants are laid out in sandy loam in wood-fiber pots, covered with soil and cultivated in a greenhouse under good growth conditions. 2 to 3 weeks after sowing, the test plants are treated at the one-leaf stage. The compounds of the invention, formulated in the form of wettable powders (WP) or as emulsion concentrates (EC), are then sprayed onto the green parts of the plants in the form of an aqueous suspension or emulsion at a water application rate equating to 600 to 800 l/ha, with addition of 0.2% wetting agent. After the test plants have been left to stand in the greenhouse under optimal growth conditions for about 3 weeks, the action of the preparations is assessed visually in comparison to untreated controls (herbicidal action in percent (%): 100% activity=the plants have died, 0% activity=like control plants).

Row | SMILES | Activity against PHBPU [%]
1 | COSc1c(C)ccc(C(=O)Nc2nnc(C)o2)c1C | 60
2 | COSc1c(C)ccc(C(=O)Nc2nnc(C)o2)c1Br | 40

same assay, conditions: dosage 20 g/ha, visual scoring after about 3 weeks vs untreated controls (100% = plants have died, 0% = like control plants)

Row | SMILES | Activity against PHBPU [%]
3 | CSc1c(C)ccc(C(=O)Nc2nnc(C)o2)c1C | 60
4 | CSc1c(C)ccc(C(=O)Nc2nnc(C)o2)c1Br | 0
5 | CSc1c(Br)ccc(C(=O)Nc2nnc(C)o2)c1C | 10

tested on: AMARE Amaranthus retroflexus; experiment: as above; assay type: in vivo; details: dosage 80 g/ha, assessed visually after about 3 weeks, 100% = plants have died
Method: as §1

Row | SMILES | Activity against AMARE [%]
6 | CSc1c(C)ccc(C(=O)Nc2ncnn2C)c1C | 90
7 | CSc1c(C)ccc(C(=O)Nc2ncnn2C)c1Br | 70
8 | Cc1ccc(C(=O)Nc2ncnn2C)c(C)c1 | 0
9 | Cc1ccc(C(=O)Nc2ncnn2C)c(C)c1[S+](C)[O-] (stereo not shown) | 90
10 | Cc1ccc(C(=O)Nc2ncnn2C)c(Br)c1[S+](C)[O-] (stereo not shown) | 70
11 | Cc1ccc(C(=O)Nc2ncnn2C)c(C)c1S(C)(=O)=O | 90
12 | Cc1c(C(=O)Nc2ncnn2C)ccc(Cl)c1S(C)(=O)=O | 60
13 | Cc1ccc(C(=O)Nc2ncnn2C)c(Br)c1S(C)(=O)=O | 60

tested on: SETVI Setaria viridis; experiment: as above; assay type: in vivo; details: dosage 80 g/ha, assessed visually after about 3 weeks, 100% = plants have died
Method: as §1, with “SETVI Setaria viridis” for “AMARE Amaranthus retroflexus PHBPU Pharbitis purpureum”

Row | SMILES | Activity against SETVI [%]
14 | CSc1c(C)ccc(C(=O)Nc2nonc2C)c1C | 0
15 | CSc1c(Cl)ccc(C(=O)Nc2nonc2C)c1C | 0
16 | Cc1nonc1NC(=O)c1ccc(C(F)(F)F)c(S(C)(=O)=O)c1C | 40
17 | Cc1nonc1NC(=O)c1ccc(C#N)c(S(C)(=O)=O)c1C | 0
18 | Cc1ccc(C(=O)Nc2nonc2C)c(C)c1S(C)(=O)=O [drawing 24] | 40
19 | Cc1ccc(C(=O)Nc2nonc2C)c(C)c1S(C)(=O)=O [drawing 27] | 80
